In patent US9657009B2, “Heteroaryl substituted pyridyl compounds useful as kinase modulators” (BRISTOL-MYERS SQUIBB COMPANY, priority 2012, dated 2017):

Molecular target: IRAK4 (Homo sapiens (Human), UniProt Q9NWZ3)
Experiment: IRAK4 Inhibition Assay
Assay type: biochemical
Settings: not given
Protocol: IRAK4 Inhibition Assay The assays were performed in U-bottom 384-well plates. […] The reaction was initiated by the combination of IRAK4 with substrates and test compounds. The reaction mixture was incubated at room temperature for 60 min. and terminated by adding 45 μL of 35 mM EDTA to each sample.

Chain of IRAK4 (Q9NWZ3 whole entry, species assumed): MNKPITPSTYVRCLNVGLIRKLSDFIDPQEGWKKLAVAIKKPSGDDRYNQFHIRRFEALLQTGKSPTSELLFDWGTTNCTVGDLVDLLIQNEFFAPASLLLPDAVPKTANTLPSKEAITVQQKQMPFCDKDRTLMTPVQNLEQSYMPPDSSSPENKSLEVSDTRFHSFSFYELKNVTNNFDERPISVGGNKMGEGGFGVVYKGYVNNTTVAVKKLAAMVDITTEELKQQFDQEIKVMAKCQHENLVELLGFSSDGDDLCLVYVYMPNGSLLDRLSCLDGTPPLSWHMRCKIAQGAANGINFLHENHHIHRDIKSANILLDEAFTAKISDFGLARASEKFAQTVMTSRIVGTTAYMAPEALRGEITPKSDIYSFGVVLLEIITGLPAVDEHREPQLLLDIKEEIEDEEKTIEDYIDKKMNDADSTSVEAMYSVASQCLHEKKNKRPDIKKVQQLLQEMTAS

SMILES	IC50 [nM]
CC(C)(O)[C@H](F)CNC(=O)c1cnc(Nc2nc(-c3cccnc3)cs2)cc1NC1CC1 [Example 23, 4-(cyclopropylamino)-N-((2R)-2-fluoro-3-hydroxy-3-methylbutyl)-6-((4-(3-pyridinyl)-1,3-thiazol-2-yl)amino)nicotinamide]	23.3

Same assay, conditions: ATP 500 μM; IRAK4 0.6 nM; 60 min at room temperature; read-out: IRAK4 IC50

SMILES	IC50 [nM]
CCn1ncc(Nc2cc(NC(C)C)c(C(=O)NC[C@@H](F)C(C)(C)O)cn2)n1 [Example 72]	10.4
CC(C)(O)[C@H](F)CNC(=O)c1cnc(Nc2ncc(C#N)cc2Cl)cc1Nc1ccc2ncsc2c1 [Example 153]	5.6
CCCNc1cc(Nc2ncc(C#N)cc2F)ncc1C(=O)NC[C@@H](F)C(C)(C)O [Example 139]	6
CC(C)(O)[C@H](F)CNC(=O)c1cnc(Nc2ncc(C#N)c(N)n2)cc1NC1CC1 [Example 154]	5.2
CC(C)(F)CNc1cc(Nc2ncc(C#N)cc2Cl)ncc1C(=O)NC[C@@H](F)C(C)(C)O [Example 46]	16.9
CC(C)Nc1cc(Nc2ncc(C#N)cc2F)ncc1C(=O)N[C@H]1CC[C@H](C(=O)NC2CC2)CC1 [Example 118]	4.6
CC(C)(O)[C@H](F)CNC(=O)c1cnc(Nc2ncc(C#N)cc2F)cc1NC1CCCOC1 (some centres unmarked) [Example 97]	5.3
CC(C)(O)[C@H](F)CNC(=O)c1cnc(Nc2ncc(C#N)cc2F)cc1Nc1ccc(C(N)=O)cc1 [Example 142]	1.2
CNC(=O)[C@H]1CC[C@H](NC(=O)c2cnc(Nc3ncc(C#N)cc3F)cc2NC2CCOCC2)CC1 [Example 61]	8.4
Cn1nnnc1-c1ccc(Nc2cc(Nc3ncc(C#N)cn3)ncc2C(=O)NC[C@@H](F)C(C)(C)O)cc1 [Example 147]	12.4
CC(=O)N[C@H]1CC[C@H](NC(=O)c2cnc(Nc3ccc(C#N)cn3)cc2NC(C)C)CC1 [Example 9, N-(trans-4-acetamidocyclohexyl)-6-((5-cyano-2-pyridinyl)amino)-4-(isopropylamino)nicotinamide]	7.4
CC(C)Nc1cc(Nc2ccncn2)ncc1C(=O)NC[C@@H](F)C(C)(C)O [Example 20, N-((2R)-2-fluoro-3-hydroxy-3-methylbutyl)-4-(isopropylamino)-6-(4-pyrimidinylamino)nicotinamide]	11.7
CC(=O)N[C@H]1CC[C@H](NC(=O)c2cnc(Nc3ncc(C#N)cc3Cl)cc2NC2CC2)CC1 [Example 67]	7.2
CC(C)(O)[C@H](F)CNC(=O)c1cnc(Nc2ncc(C#N)cc2F)cc1NC12CCC(O)(CC1)C2 [Example 133]	3.2
CC(C)(O)[C@H](F)CNC(=O)c1cnc(Nc2ncncc2Cl)cc1NC1CCCOC1 (some centres unmarked) [Example 96]	11.2
C[C@@H](CF)Nc1cc(Nc2ncc(C#N)cc2Cl)ncc1C(=O)NC[C@@H](F)C(C)(C)O [Example 39, 6-((3-chloro-5-cyanopyridin-2-yl)amino)-N—((R)-2-fluoro-3-hydroxy-3-methylbutyl)-4-(((S)-1-fluoropropan-2-yl)amino)nicotinamide]	3.8
CNC(=O)[C@H]1CC[C@H](NC(=O)c2cnc(Nc3ncc(C#N)cc3Cl)cc2NC2CC2)CC1 [Example 60]	6.7
CCNc1cc(Nc2ncc(C#N)cn2)ncc1C(=O)NC[C@@H](F)C(C)(C)O [Example 58]	10.4
CC(C)(O)[C@H](F)CNC(=O)c1cnc(Nc2ncc(C#N)cc2F)cc1NC12CC3CC(CC(C3)C1)C2 [Example 119]	10.5
Cc1cc(C#N)cnc1Nc1cc(NC(C)C)c(C(=O)NC[C@@H](F)C(C)(C)O)cn1 [Example 85]	3.6
CCNc1cc(Nc2ccc(C#N)cn2)ncc1C(=O)NC[C@@H](F)C(C)(C)O [Example 4, 6-((5-cyano-2-pyridinyl)amino)-4-(ethylamino)-N-((2R)-2-fluoro-3-hydroxy-3-methylbutyl)nicotinamide]	10.3
CC(C)(O)[C@H](F)CNC(=O)c1cnc(Nc2ncc(C#N)cc2Cl)cc1NC1CCCC1O (some centres unmarked) [Example 76]	6.4
CC(=O)N[C@H]1CC[C@H](NC(=O)c2cnc(Nc3ncc(C#N)cc3Cl)cc2NC2CCOCC2)CC1 [Example 77]	7.8
CNC(=O)c1cnc(Nc2ccc(C#N)cn2)cc1N[C@@H](c1ccccc1)[C@H](O)CO [Example 1, 6-((5-cyano-2-pyridinyl)amino)-4-(((1S,2S)-2,3-dihydroxy-1-phenylpropyl)amino)-N-methylnicotinamide]	53.9
CC(C)Nc1cc(Nc2ccnc(N3CCC(F)C3)n2)ncc1C(=O)NC[C@@H](F)C(C)(C)O (stereo partly drawn) [Example 26, N-((2R)-2-fluoro-3-hydroxy-3-methylbutyl)-6-((2-(3-fluoro-1-pyrrolidinyl)-4-pyrimidinyl)amino)-4-(isopropylamino)nicotinamide]	4.8
CC(C)Nc1cc(Nc2ccnc(N)n2)ncc1C(=O)NC[C@@H](F)C(C)(C)O [Example 131]	10.6

Second part, the compound after the results:

IC50 [nM]	SMILES
3.6	CC(C)(O)[C@H](F)CNC(=O)c1cnc(Nc2ncc(C#N)cc2F)cc1Nc1cccc(O)c1 [Example 125]
6.1	CC(=O)Nc1nc(Nc2cc(NC(C)C)c(C(=O)NC[C@@H](F)C(C)(C)O)cn2)ncc1C#N [Example 34]
2.9	CC(C)(O)[C@H](F)CNC(=O)c1cnc(Nc2ncc(C#N)cc2Cl)cc1Nc1cccc(C(N)=O)c1 [Example 143]
17.5	COC(=O)Cn1cc(Cl)c(Nc2cc(NC(C)C)c(C(=O)NC[C@@H](F)C(C)(C)O)cn2)n1 [Example 93]
5.3	CC(C)(O)[C@H](F)CNC(=O)c1cnc(Nc2ncc(C#N)cc2Cl)cc1N[C@H]1CC[C@@](C)(O)CC1 [Example 152]
6.4	CC(C)Nc1cc(Nc2ncc(C#N)c(NC(C)C)n2)ncc1C(=O)NC[C@@H](F)C(C)(C)O [Example 40]
12.1	CC(C)(O)[C@H](F)CNC(=O)c1cnc(Nc2ncncc2F)cc1NC1CC1 [Example 94]
8.1	CC(C)Nc1cc(Nc2ncncc2F)ncc1C(=O)NC[C@@H](F)C(C)(C)O [Example 53]
14.7	CC(C)(O)[C@H](F)CNC(=O)c1cnc(Nc2nc(OC3CCNCC3)ncc2Cl)cc1NC1CC1 [Example 42]
17.4	C[C@H](CO)Nc1cc(Nc2ncc(F)cc2F)ncc1C(=O)NC[C@@H](F)C(C)(C)O [Example 100]
6.3	CNC(=O)[C@H]1CC[C@H](NC(=O)c2cnc(Nc3ncc(C#N)cc3Cl)cc2NC(C)C)CC1 [Example 16, 6-((3-chloro-5-cyanopyridin-2-yl)amino)-4-(isopropylamino)-N-((1r,4r)-4-(methylcarbamoyl)cyclohexyl)nicotinamide]
11.8	CC(C)Nc1cc(Nc2ncc(O)cn2)ncc1C(=O)NC[C@@H](F)C(C)(C)O [Example 111]
3.3	CC(C)(O)[C@H](F)CNC(=O)c1cnc(Nc2ncc(C#N)cc2F)cc1Nc1cccc(CO)c1 [Example 122]
8.2	CC(C)Nc1cc(Nc2ncc(C#N)cc2F)ncc1C(=O)NC1CCC(O)(c2ccnn2C)CC1 (centres unmarked) [Example 166]
3.3	CS(=O)(=O)[C@H]1CC[C@H](NC(=O)c2cnc(Nc3ncc(C#N)cc3Cl)cc2NC2CC2)CC1 [Example 151]
4.8	CC(=O)N[C@H]1CC[C@H](NC(=O)c2cnc(Nc3ncc(C#N)cc3F)cc2NC(C)C)CC1 [Example 19, N-(trans-4-acetamidocyclohexyl)-6-((5-cyano-3-fluoro-2-pyridinyl)amino)-4-(isopropylamino)nicotinamide]

Same assay, conditions: read-out: IRAK4 IC50; ATP 500 μM; IRAK4 0.6 nM; 60 min at room temperature

SMILES	IC50 [nM]
CC(C)Nc1cc(Nc2ncc(C#N)cc2F)ncc1C(=O)NC1CCC(C(C)(O)C2CC2)CC1 (centres unmarked) [Example 144]	7.8
